In ChEMBL document CHEMBL1138941, “BACE-1 inhibition by a series of psi[CH2NH] reduced amide isosteres” (Bioorg Med Chem Lett, 2006):
pIC50: −log10 of the molar value.

Experiments:
Beta-secretase 1 [1] = molecular target: T1, Beta-secretase 1 (Homo sapiens, UniProt P56817); experiment: Inhibition of soluble APPbeta N-terminal fragment production in HEK293T cells; assay type: functional, cell-based, HEK-293T
Beta-secretase 1 [2] = molecular target: T1, Beta-secretase 1; experiment: Inhibition of BACE1
[3] = Apparent permeability of the compound; assay type: ADME; details: not told

T1 sequence (P56817 whole entry, the tested form may be a part): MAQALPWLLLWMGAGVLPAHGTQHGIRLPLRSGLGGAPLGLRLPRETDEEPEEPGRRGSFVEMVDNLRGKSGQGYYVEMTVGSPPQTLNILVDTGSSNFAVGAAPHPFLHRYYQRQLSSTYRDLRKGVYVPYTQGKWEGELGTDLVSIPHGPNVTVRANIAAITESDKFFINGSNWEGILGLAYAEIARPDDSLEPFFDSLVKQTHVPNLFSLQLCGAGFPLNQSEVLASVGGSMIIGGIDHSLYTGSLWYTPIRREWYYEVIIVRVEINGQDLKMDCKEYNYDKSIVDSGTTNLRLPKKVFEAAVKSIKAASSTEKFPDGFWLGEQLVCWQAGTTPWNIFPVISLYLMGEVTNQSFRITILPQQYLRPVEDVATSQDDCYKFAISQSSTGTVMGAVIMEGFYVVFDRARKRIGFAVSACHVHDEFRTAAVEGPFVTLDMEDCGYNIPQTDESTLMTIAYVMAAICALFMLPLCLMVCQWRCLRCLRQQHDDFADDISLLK

Compound	pIC50 (Beta-secretase 1 [1])	pIC50 (Beta-secretase 1 [2])	Papp [3]
C[C@@H](NC(=O)c1cc(C(=O)N[C@@H](Cc2ccccc2)[C@H](O)CNC2CC2)cc(N(C)S(C)(=O)=O)c1)c1ccc(F)cc1	–	–	0.6 ×10⁻⁶ cm/s
C[C@H](NC[C@H](Cc1ccccc1)NC(=O)c1cc(C(=O)N[C@H](C)c2ccc(F)cc2)cc(N(C)S(C)(=O)=O)c1)C(=O)NCc1ccccc1	6.14	6.86	–
CCNC(=O)[C@H](C)NC[C@H](Cc1ccccc1)NC(=O)c1cc(C(=O)N[C@H](C)c2ccc(F)cc2)cc(N(C)S(C)(=O)=O)c1	6.62	7.28	–
CC(C)CNC(=O)[C@H](C)NC[C@H](Cc1ccccc1)NC(=O)c1cc(C(=O)N[C@H](C)c2ccc(F)cc2)cc(N(C)S(C)(=O)=O)c1	7.66	–	10 ×10⁻⁶ cm/s
CC(C)CNC(=O)[C@H](C)NC[C@H](Cc1ccccc1)NC(=O)c1cc(CCC2C[C@@H]2C)cc(N(C)S(C)(=O)=O)c1 (stereo partly specified)	7.64	7.70	24 ×10⁻⁶ cm/s
C[C@@H](NC(=O)c1cc(C(=O)N[C@H](CN)Cc2ccccc2)cc(N(C)S(C)(=O)=O)c1)c1ccc(F)cc1	–	5.23	–
CC(C)CNC(=O)CNC[C@H](Cc1ccccc1)NC(=O)c1cc(C(=O)N[C@H](C)c2ccc(F)cc2)cc(N(C)S(C)(=O)=O)c1	5.43	6.93	–
CC(C)CNC(=O)[C@H](CCO)NC[C@H](Cc1ccccc1)NC(=O)c1cc(C(=O)N[C@H](C)c2ccc(F)cc2)cc(N(C)S(C)(=O)=O)c1	6.12	7.89	–

More lines, in order of rising pIC50 (Beta-secretase 1 [2]), values ahead:

pIC50 (Beta-secretase 1 [1])	pIC50 (Beta-secretase 1 [2])	Papp [3]	Compound
< 4.70	4.76	–	C[C@H](NC[C@H](Cc1ccccc1)NC(=O)c1cc(C(=O)N[C@H](C)c2ccc(F)cc2)cc(N(C)S(C)(=O)=O)c1)C(=O)N1CCC[C@H]1C(=O)O
–	6.20	–	C[C@@H](NC(=O)c1cc(C(=O)N[C@H](CO)Cc2ccccc2)cc(N(C)S(C)(=O)=O)c1)c1ccc(F)cc1
6.88	7.62	–	C[C@H](NC[C@H](Cc1ccccc1)NC(=O)c1cc(C(=O)N[C@H](C)c2ccc(F)cc2)cc(N(C)S(C)(=O)=O)c1)C(=O)NC1CC1
4.76	7.89	–	CC(C)CNC(=O)[C@H](CCS(C)(=O)=O)NC[C@H](Cc1ccccc1)NC(=O)c1cc(C(=O)N[C@H](C)c2ccc(F)cc2)cc(N(C)S(C)(=O)=O)c1
7.70	8.15	–	CC[C@H](NC[C@H](Cc1ccccc1)NC(=O)c1cc(C(=O)N[C@H](C)c2ccc(F)cc2)cc(N(C)S(C)(=O)=O)c1)C(=O)NCC(C)C
7.77	8.40	–	CCC[C@H](NC[C@H](Cc1ccccc1)NC(=O)c1cc(C(=O)N[C@H](C)c2ccc(F)cc2)cc(N(C)S(C)(=O)=O)c1)C(=O)NCC(C)C
